Test system: antigen specific CD8+ T cells
Test: Addition of IL-21 to NEO-STIM.RNA cultures
Format: cell-based, human
Text: In order to improve the NEO-STIM protocol using RNA, IL-21 was explored as an addition to the protocol.
In order to improve the NEO-STIM protocol using RNA, IL-21 was explored as an addition to the protocol. […] Using IL-21 in NEO-STIM increases central memory phenotype in antigen specific CD8^+ T cells.

IL-21: cytokine added to the NEO-STIM protocol using RNA
effect on expansion of T cells (NEO-STIM process using RNA encoded neoantigenic epitopes): improves expansion of T cells | effect on central memory phenotype in antigen specific CD8+ T cells (NEO-STIM.RNA cultures): increases the central memory phenotype | effect on priming of specific T cells (NEO-STIM.RNA cultures): improves the priming of specific T cells
